{
  "source": "patent US6462072B1",
  "about": "“Cyclic ester or amide derivatives” (GPI NIL Holdings, Inc., priority 1998, dated 2002)",
  "biological_target": "FKBP (Homo sapiens, UniProt P62942)",
  "sequence (P62942 whole entry)": "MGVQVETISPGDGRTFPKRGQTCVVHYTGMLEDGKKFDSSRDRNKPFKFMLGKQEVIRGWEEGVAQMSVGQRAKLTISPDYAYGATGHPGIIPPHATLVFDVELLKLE",
  "test": "Ki test procedure: inhibition of peptidyl-prolyl isomerase (rotamase) activity, chymotrypsin-coupled assay",
  "format": "biochemical",
  "details": "read-out: Ki (apparent Ki, rotamase inhibition)",
  "text": "Inhibition of the peptidyl-prolyl isomerase (rotamase) activity of the inventive compounds can be evaluated by known methods described in the literature (Harding, M. W. et al. Nature 341: 758-760 (1989); Holt et al. J. Am. Chem. Soc. 115: 9923-9938). These values are obtained as apparent Ki's and are presented in Table I. The cis-trans isomerization of an alanine-proline bond in a model substrate, N-succinyl-Ala-Ala-Pro-Phe-p-nitroanilide, is monitored spectro-photometrically in a chymotrypsin-coupled assay, which releases para-nitroanilide from the trans form of the substrate. The inhibition of this reaction caused by the addition of different concentrations of inhibitor is determined, and the data is analyzed as a change in first-order rate constant as a function of inhibitor concentration to yield the apparent Kivalues.\nIn a plastic cuvette are added […] of ice cold assay buffer (25 mM HEPES, pH 7.8, 100 mM NaCl), […] of FKBP (2.5 mM in 10 mM Tris-Cl pH 7.5, 100 mM NaCl, 1 mM dithiothreitol), […] of chymotrypsin (50 mg/mL in 1 mM HCl) and 10 mL of test compound at various concentrations in dimethyl sulfoxide. […]\nThe absorbance at 390 nm versus time is monitored for 90 sec using a spectrophotometer and the rate constants are determined from the absorbance versus time data files.",
  "data": [
    {"smiles": "CCC(C)(C)C(=O)C(=O)N1CCC[C@H]1C(=O)OC1CCC(c2ccccc2)(c2ccccc2)CC1", "note": "[4,4-diphenylcyclohexl (2S)-1-(3,3-dimethyl-2-oxopentanoyl)-pyrrolidine-2-carboxylate]", "values": [
      {"measurement": "Ki", "result": 5.64, "unit": "µM"}
    ]}
  ]
}
